# Values quoted from earlier work as cited in paper PMC9145865, “Effects of Rare Phytocannabinoids on the Endocannabinoid System of Human Keratinocytes” (International Journal of Molecular Sciences, 2022).
# Tested on: transformed human keratinocytes
# Set-up: method as in PMID 17157480
# Settings: hyperproliferative conditions; ref [46]; cited from earlier work
structure (smiles),measurement,value
"CCCCCc1cc(O)c2c(c1)OC(C)(C)[C@@H]1CCC(C)=C[C@@H]21 [Δ^9-THC, Δ^9-tetrahydrocannabinol]",proliferation of transformed human keratinocytes,inhibit the proliferation
"C=C(C)[C@@H]1CCC(C)=C[C@H]1c1c(O)cc(CCCCC)cc1O [CBD, cannabidiol]",proliferation of transformed human keratinocytes,inhibit the proliferation
